One test concerns the target T1, IRAK4 (Homo sapiens, UniProt Q9NWZ3).
T1 construct: His-TEV-IRAK4 (1-460); His (N); TEV cleavage site (N)
T1 sequence (Q9NWZ3 1-460): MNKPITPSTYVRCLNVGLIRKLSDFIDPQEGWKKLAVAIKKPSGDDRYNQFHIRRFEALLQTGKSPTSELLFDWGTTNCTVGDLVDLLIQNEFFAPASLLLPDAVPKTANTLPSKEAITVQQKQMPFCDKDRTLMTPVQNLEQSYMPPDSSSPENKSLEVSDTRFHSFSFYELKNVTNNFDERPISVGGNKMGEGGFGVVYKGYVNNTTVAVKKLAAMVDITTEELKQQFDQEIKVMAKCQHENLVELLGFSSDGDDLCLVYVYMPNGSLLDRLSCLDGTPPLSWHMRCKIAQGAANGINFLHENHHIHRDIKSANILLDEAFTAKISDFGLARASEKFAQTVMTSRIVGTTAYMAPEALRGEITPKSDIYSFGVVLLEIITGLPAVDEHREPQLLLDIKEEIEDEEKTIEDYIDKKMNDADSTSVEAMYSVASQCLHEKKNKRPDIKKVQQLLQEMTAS
As to the kind of experiment: IRAK4 enzymatic assay (ADP-Glo luminescence). Type of test: biochemical. The note with it: purified human recombinant His-TEV-IRAK4 (1-460), ATP 2 μM. Summed up: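 ADP-Glo luminescence read-out after a 2 h RT kinase reaction with 2 μM ATP and 300 nM biotinylated STK1 peptide. Enzyme (His-TEV-IRAK4 1-460, 0.3 μg/ml) first incubated 15 min with serially diluted compounds (10 μM–0.5 nM) in 50 mM Hepes pH 7.0, 10 mM MgCl2, 5 mM MnCl2.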

Another test deals with T2, IRAK1 (Homo sapiens, UniProt P51617).
T2 construct: His-TEV-IRAK1 (194-712); His (N); TEV cleavage site (N)
T2 sequence (P51617 194-712): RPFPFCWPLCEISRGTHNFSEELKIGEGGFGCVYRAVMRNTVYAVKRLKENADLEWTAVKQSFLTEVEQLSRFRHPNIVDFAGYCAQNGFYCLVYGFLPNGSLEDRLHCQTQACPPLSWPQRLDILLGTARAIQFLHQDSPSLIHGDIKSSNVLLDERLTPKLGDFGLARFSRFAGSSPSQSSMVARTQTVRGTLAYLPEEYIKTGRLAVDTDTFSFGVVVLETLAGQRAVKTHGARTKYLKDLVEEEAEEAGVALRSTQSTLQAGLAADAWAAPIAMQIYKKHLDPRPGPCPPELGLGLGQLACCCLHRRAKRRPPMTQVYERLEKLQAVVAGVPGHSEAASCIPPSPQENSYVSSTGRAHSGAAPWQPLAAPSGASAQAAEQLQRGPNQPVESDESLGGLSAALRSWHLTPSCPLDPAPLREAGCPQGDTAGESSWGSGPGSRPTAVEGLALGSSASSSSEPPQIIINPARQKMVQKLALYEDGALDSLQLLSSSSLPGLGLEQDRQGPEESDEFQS
As to the kind of experiment: IRAK1 enzymatic assay (ADP-Glo luminescence). Format: biochemical. The note with it: purified human recombinant His-TEV-IRAK1 (194-712). The method in brief:
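Luminescent ADP-Glo read-out of ATP turnover by purified His-TEV-IRAK1 (194-712) at 0.3 μg/ml after a 2-hour RT reaction. Compounds, serially diluted from 10 μM to 0.5 nM, were preincubated with enzyme 15 minutes in Hepes pH 7.0 buffer with MgCl2, DTT, EGTA and Triton X-100.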

Counter-ions that a name gives are not always drawn.

Usually IC50 stands for the concentration at which inhibition is half-maximal. In the case of `C#CCn1/c(=N/C(=O)c2cccc(C(F)(F)F)c2)[nH]c2cc(N3CCCOC3=O)ccc21` [Compound 175, (E)-N-(5-(2-oxo-1,3-oxazinan-3-yl)-1-(prop-2-yn-1-yl)-1H-benzo[d]imidazol-2(3H)-ylidene)-3-(trifluoromethyl)benzamide], the IC50 on IRAK4 is not above 100 nM; on IRAK1, 100 to 1000 nM.
For `O=C(/N=c1\[nH]c2cc(N3CCCOC3=O)ccc2n1CCC(F)(F)F)c1cccc(C(F)(F)F)c1` [Compound 176, (E)-N-(5-(2-oxo-1,3-oxazinan-3-yl)-1-(3,3,3-trifluoropropyl)-1H-benzo[d]imidazol-2(3H)-ylidene)-3-(trifluoromethyl)benzamide], the IC50 at IRAK4 is not above 100 nM; on IRAK1 it was 100 to 1000 nM.
As for `O=C(/N=c1\[nH]c2cc(N3CCCOC3=O)ccc2n1CC(F)(F)C(F)(F)F)c1cccc(C(F)(F)F)c1` [Compound 177, (E)-N-(5-(2-oxo-1,3-oxazinan-3-yl)-1-(2,2,3,3,3-pentafluoropropyl)-1H-benzo[d]imidazol-2(3H)-ylidene)-3-(trifluoromethyl)benzamide], the IC50 on IRAK4 was not above 100 nM; on IRAK1, more than 1000 nM.
On to `CC(C)(F)Cn1/c(=N/C(=O)c2cccc(C(F)(F)F)c2)[nH]c2cc(N3CCCOC3=O)ccc21` [Compound 178, (E)-N-(1-(2-fluoro-2-methylpropyl)-5-(2-oxo-1,3-oxazinan-3-yl)-1H-benzo[d]imidazol-2(3H)-ylidene)-3-(trifluoromethyl)benzamide], for which the IC50 was not above 100 nM at IRAK4 and 100 to 1000 nM on IRAK1.
As to `CC(F)(F)Cn1/c(=N/C(=O)c2cccc(C(F)(F)F)c2)[nH]c2cc(N3CCCOC3=O)ccc21` [Compound 179, (E)-N-(1-(2,2-difluoropropyl)-5-(2-oxo-1,3-oxazinan-3-yl)-1H-benzo[d]imidazol-2(3H)-ylidene)-3-(trifluoromethyl)benzamide], the half-maximal inhibitory concentration (IC50) on IRAK4 is not above 100 nM; at IRAK1 it was 100 to 1000 nM.
`O=C(/N=c1\[nH]c2cc(N3CCCOC3=O)ccc2n1CC1CCCOC1)c1cccc(C(F)(F)F)c1` (centres unmarked) [Compound 180, (E)-N-(5-(2-oxo-1,3-oxazinan-3-yl)-1-((tetrahydro-2H-pyran-3-yl)methyl)-1H-benzo[d]imidazol-2(3H)-ylidene)-3-(trifluoromethyl)benzamide]: the results for the 50% inhibitory concentration (IC50) on IRAK4 and on IRAK1 were not above 100 nM and 100 to 1000 nM, respectively.
`O=C(/N=c1\[nH]c2cc(N3CCCOC3=O)ccc2n1CC1CCCCC1)c1cccc(C(F)(F)F)c1` [Compound 181, (E)-N-(1-(cyclohexylmethyl)-5-(2-oxo-1,3-oxazinan-3-yl)-1H-benzo[d]imidazol-2(3H)-ylidene)-3-(trifluoromethyl)benzamide]: the concentration for half-maximal inhibition (IC50) at IRAK4 was not above 100 nM; on IRAK1 it was more than 1000 nM.
On the same counts, the results for `O=C(/N=c1\[nH]c2cc(N3CCN(C4CC4)CC3=O)ccc2n1CCCO)c1cccc(C(F)F)c1` [Compound 182, (E)-N-(5-(4-cyclopropyl-2-oxopiperazin-1-yl)-1-(3-hydroxypropyl)-1H-benzo[d]imidazol-2(3H)-ylidene)-3-(difluoromethyl)benzamide] are not above 100 nM and not above 100 nM.
On the same counts, the results for `O=C(/N=c1\[nH]c2cc(N3CCN(C4CC4)CC3=O)ccc2n1CCCO)c1cccc(C(F)(F)F)c1` [Compound 183, (E)-N-(5-(4-cyclopropyl-2-oxopiperazin-1-yl)-1-(3-hydroxypropyl)-1H-benzo[d]imidazol-2(3H)-ylidene)-3-(trifluoromethyl)benzamide] are not above 100 nM and not above 100 nM.
For `O=C(/N=c1\[nH]c2cc(N3CCN(C4CCC4)CC3=O)ccc2n1CCCO)c1cccc(C(F)F)c1` [Compound 184, (E)-N-(5-(4-cyclobutyl-2-oxopiperazin-1-yl)-1-(3-hydroxypropyl)-1H-benzo[d]imidazol-2(3H)-ylidene)-3-(difluoromethyl)benzamide], in that order: not above 100 nM and not above 100 nM.
Take `CC(C)N1CCN(c2ccc3c(c2)[nH]/c(=N\C(=O)c2cccc(C(F)F)c2)n3CCCO)C(=O)C1` [Compound 185, (E)-3-(difluoromethyl)-N-(1-(3-hydroxypropyl)-5-(4-isopropyl-2-oxopiperazin-1-yl)-1H-benzo[d]imidazol-2(3H)-ylidene)benzamide]: the IC50 on IRAK4 and on IRAK1 was not above 100 nM throughout.
Turning to `O=C(/N=c1\[nH]c2cc(N3CCSCC3=O)ccc2n1CCCO)c1cccc(C(F)(F)F)c1` [Compound 186, (E)-N-(1-(3-hydroxypropyl)-5-(3-oxothiomorpholino)-1H-benzo[d]imidazol-2(3H)-ylidene)-3-(trifluoromethyl)benzamide], the IC50 at IRAK4 was not above 100 nM; at IRAK1, 100 to 1000 nM.
For `O=C(/N=c1\[nH]c2cc(N3CCSCC3=O)ccc2n1CCCO)c1cccc(C(F)F)c1` [Compound 187, (E)-3-(difluoromethyl)-N-(1-(3-hydroxypropyl)-5-(3-oxothiomorpholino)-1H-benzo[d]imidazol-2(3H)-ylidene)benzamide], in that order: not above 100 nM and not above 100 nM.
For `Cn1cnn(-c2ccc3c(c2)[nH]/c(=N\C(=O)c2cccc(C(F)(F)F)c2)n3CCCO)c1=O` [Compound 188, (E)-N-(1-(3-hydroxypropyl)-5-(4-methyl-5-oxo-4,5-dihydro-1H-1,2,4-triazol-1-yl)-1H-benzo[d]imidazol-2(3H)-ylidene)-3-(trifluoromethyl)benzamide], in that order: not above 100 nM and 100 to 1000 nM.
On the same counts, the results for `Cn1ncn(-c2ccc3c(c2)[nH]/c(=N\C(=O)c2cccc(C(F)(F)F)c2)n3CCCO)c1=O` [Compound 189, (E)-N-(1-(3-hydroxypropyl)-5-(1-methyl-5-oxo-4,5-dihydro-1H-1,2,4-triazol-4(5H)-yl)-1H-benzo[d]imidazol-2(3H)-ylidene)-3-(trifluoromethyl)benzamide] are not above 100 nM and not above 100 nM.
Turning to `O=C(/N=c1\[nH]c2cc(N3CCCCS3(=O)=O)ccc2n1CCCO)c1cccc(C(F)(F)F)c1` [Compound 190, (E)-N-(5-(1,1-dioxido-1,2-thiazinan-2-yl)-1-(3-hydroxypropyl)-1H-benzo[d]imidazol-2(3H)-ylidene)-3-(trifluoromethyl)benzamide], the values for the half-maximal inhibitory concentration (IC50) at IRAK4 and at IRAK1 were not above 100 nM and 100 to 1000 nM, respectively.
Consider `CC1(C)NCCN(c2ccc3c(c2)[nH]/c(=N\C(=O)c2cccc(C(F)(F)F)c2)n3CCCO)C1=O` [Compound 191, (E)-N-(5-(3,3-dimethyl-2-oxopiperazin-1-yl)-1-(3-hydroxypropyl)-1H-benzo[d]imidazol-2(3H)-ylidene)-3-(trifluoromethyl)benzamide hydrochloride], for which the concentration for half-maximal inhibition (IC50) was not above 100 nM at IRAK4 and 100 to 1000 nM at IRAK1.
For `O=C(/N=c1\[nH]c2cc(N3CCOCCC3=O)ccc2n1CCCO)c1cccc(C(F)(F)F)c1` [Compound 192, (E)-N-(1-(3-hydroxypropyl)-5-(5-oxo-1,4-oxazepan-4-yl)-1H-benzo[d]imidazol-2(3H)-ylidene)-3-(trifluoromethyl)benzamide], in that order: not above 100 nM and 100 to 1000 nM.
Regarding `O=C(/N=c1\[nH]c2cc(N3CCCOCC3=O)ccc2n1CCCO)c1cccc(C(F)(F)F)c1` [Compound 193, (E)-N-(1-(3-hydroxypropyl)-5-(3-oxo-1,4-oxazepan-4-yl)-1H-benzo[d]imidazol-2(3H)-ylidene)-3-(trifluoromethyl)benzamide], the IC50 on IRAK4 and on IRAK1 was not above 100 nM throughout.
On to `CC1(C)C(=O)N(c2ccc3c(c2)[nH]/c(=N\C(=O)c2cccc(C(F)(F)F)c2)n3CCCO)CCN1C1CC1` [Compound 194, (E)-N-(5-(4-cyclopropyl-3,3-dimethyl-2-oxopiperazin-1-yl)-1-(3-hydroxypropyl)-1H-benzo[d]imidazol-2(3H)-ylidene)-3-(trifluoromethyl)benzamide], for which the values for the 50% inhibitory concentration (IC50) at IRAK4 and at IRAK1 were not above 100 nM and 100 to 1000 nM, respectively.
`C[C@H](CCO)n1/c(=N/C(=O)c2cccc(C(F)F)c2)[nH]c2cc(N3CCOCC3=O)ccc21` [Compound 242, (R,E)-3-(difluoromethyl)-N-(1-(4-hydroxybutan-2-yl)-5-(3-oxomorpholino)-1H-benzo[d]imidazol-2(3H)-ylidene)benzamide]: the concentration for half-maximal inhibition (IC50) at IRAK4 and at IRAK1 was not above 100 nM throughout.
As to `O=C(/N=c1\[nH]c2cc(N3CCCOCC3=O)ccc2n1CCCO)c1cccc(C(F)F)c1` [Example 186, (E)-3-(difluoromethyl)-N-(1-(3-hydroxypropyl)-5-(3-oxo-1,4-oxazepan-4-yl)-1H-benzo[d]imidazol-2(3H)-ylidene)benzamide], the IC50 on IRAK4 and on IRAK1 was not above 100 nM in each case.

The values above are taken from patent publication US10059701B2 (Merck Patent GmbH, priority 2015, dated 2018).
